Assays:
[1] = cited from earlier work
lipid peroxidation = assay: Lipid peroxidation in cells exposed to IR; type: cell-based; conditions: cells exposed to 5 Gy IR, FIG. 5A
Excerpt: (§1) In various embodiments JP4-039-MLV nanoparticles protect cells from IR-induced oxidative stress. In addition to DNA damage, IR-induced oxidative stress can result in lipid peroxidation, mitochondrial membrane permeability, and an increase in ROS concentration. FIGS. 5A-5C provide exemplary data of an embodiment showing reduction of IR-induced cellular dysregulation.

[2] = cited from earlier work; remark: listed apart in the source
ROS = ROS levels in cells exposed to IR; type: cell-based; conditions: cells exposed to 5 Gy IR, FIG. 5C
Excerpt: as §1

[3] = test system: mitochondrial membrane permeability; assay: Mitochondrial membrane permeability in cells exposed to IR; type: cell-based; conditions: cells exposed to 10 Gy IR, FIG. 5B
Excerpt: as §1

γ-H2AX = assay: IR-induced DNA double strand breaks, γ-H2AX immunohistochemistry in irradiated cells; type: cell-based; conditions: cells treated prior to irradiation of 0 Gy and 5 Gy, FIGS. 4A-4B
Excerpt: In various embodiments JP4-039-MLVs have the ability to reduce IR-induced DNA double strand breaks (DSBs). IR induces DNA damage resulting in double strand breaks that can result in mitotic failure and cell death. Secondary oxidative stress induces further DNA damage. In response to double strand breaks, the histone H2AX is rapidly phosphorylated, producing γ-H2AX, a standard biomarker of DNA damage. […] FIGS. 4A-4B illustrate exemplary data from an embodiment showing the ability to reduce DNA DSBs. Specifically, FIG. 4A provides confocal images of cells treated with DMSO (control), JP4-039, and JP4-039-MLVs prior to irradiation of 0 Gy and 5 Gy. Cell nuclei are stained with DAPI (blue) and γ-H2AX is visualized by immunohistochemistry (green), while FIG. 4B illustrates relative frequency of γ-H2AX+ cells by counting blue puncta and green puncta.

[4] = test system: γ-H2AX+ intestinal crypt cells; conditions: mice, 9.25 Gy TBI; cited from earlier work
[5] = stated for comparison; cited from earlier work

JP4-039
solubility in an aqueous environment [1]: very low solubility | levels of lipid peroxidation (lipid peroxidation): reduce levels of lipid peroxidation | survival following TBI ([2]; hematopoietic- or gastrointestinal-ARS-inducing doses of TBI): increasing survival | time window of effectiveness relative to irradiation ([2]; in vivo radiation survival studies): effective 24 h prior to 72 h after irradiation | ROS levels (ROS): reduced ROS levels | levels of mitochondrial membrane permeability [3]: reduced levels of mitochondrial membrane permeability | protection from IR-induced DNA damage (relative frequency of γ-H2AX+ cells) (γ-H2AX): protected cells from IR-induced DNA damage | number of γ-H2AX+ intestinal crypt cells [4]: reduce the number of γ-H2AX+ intestinal crypt cells | in vivo half-life [5]: approximately 6 hours
